Experimental data published in PubChem BioAssay (NCI).
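Cells were grown in 96-well plates and exposed to each compound for 48 hours at five concentrations; endpoints were interpolated linearly between bracketing concentrations, or set to the highest concentration if not reached. The concentration for full growth arrest is given as TGI.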

Experiments:
Assay in all cases: DTP human tumour cell line panel, 48 h
[1] = tested on: BT-549 breast
[2] = tested on: SNB-19 CNS
[3] = tested on: SW-620 colon
[4] = tested on: SN12C renal
[5] = tested on: OVCAR-3 ovarian
[6] = tested on: LOX IMVI melanoma
[7] = tested on: HT29 colon
[8] = tested on: T-47D breast
[9] = tested on: SF-295 CNS
[10] = tested on: TK-10 renal
[11] = tested on: OVCAR-8 ovarian
[12] = tested on: SF-539 CNS
[13] = tested on: SNB-75 CNS
[14] = tested on: A498 renal
[15] = tested on: SK-OV-3 ovarian
[16] = tested on: IGROV1 ovarian
[17] = tested on: UO-31 renal
[18] = tested on: NCI-H522 lung
[19] = tested on: HCT-15 colon
[20] = tested on: CAKI-1 renal
[21] = tested on: CCRF-CEM leukemia
[22] = tested on: SK-MEL-5 melanoma
[23] = tested on: PC-3 prostate
[24] = tested on: MDA-MB-435
[25] = tested on: MDA-N
[26] = tested on: HOP-92 NSCLC
[27] = tested on: ACHN renal
[28] = tested on: EKVX NSCLC
[29] = tested on: HCT-116 colon
[30] = tested on: A549 NSCLC
[31] = tested on: NCI/ADR-RES ovarian
[32] = tested on: COLO 205 colon
[33] = tested on: SF-268 CNS
[34] = tested on: SR leukemia
[35] = tested on: NCI-H460 lung
[36] = tested on: HCC-2998 colon
[37] = tested on: K-562 leukemia
[38] = tested on: MDA-MB-231 breast
[39] = tested on: MALME-3M melanoma
[40] = tested on: RPMI-8226 leukemia
[41] = tested on: SK-MEL-28 melanoma
[42] = tested on: DU-145 prostate
[43] = tested on: MCF7 breast
[44] = tested on: M14 melanoma
[45] = tested on: KM12 colon
[46] = tested on: HL-60(TB) leukemia
[47] = tested on: HOP-62 NSCLC
[48] = tested on: NCI-H23 lung
[49] = tested on: RXF 393 renal
[50] = tested on: 786-0 renal
[51] = tested on: NCI-H226 lung
[52] = tested on: HS 578T breast
[53] = tested on: UACC-62 melanoma
[54] = tested on: OVCAR-4 ovarian
[55] = tested on: UACC-257 melanoma
[56] = tested on: MOLT-4 leukemia
[57] = tested on: U251 CNS
[58] = tested on: SK-MEL-2 melanoma
[59] = tested on: KM20L2 colon
[60] = tested on: DMS 114 small cell lung
[61] = tested on: DLD-1 colon
[62] = tested on: OVCAR-5 ovarian
[63] = tested on: DMS 273 small cell lung
[64] = tested on: M19-MEL melanoma
[65] = tested on: LXFL 529 NSCLC

Molecule O=[N+]([O-])/C(Cl)=C/C(=C1/Nc2ccccc2O1)[N+](=O)[O-] has a TGI [1] of 52 µM, a TGI [2] of 45.5 µM and a TGI [3] of 72.3 µM. For the same molecule, the TGI [4] was greater than 100 µM, the TGI [5] was 57.5 µM and the TGI [6] was 23.1 µM. The TGI [7] was greater than 100 µM, the TGI [8] was greater than 100 µM and the TGI [9] was 73.7 µM. It also gave a TGI [10] greater than 100 µM, a TGI [11] of 40.5 µM and a TGI [12] of 59.4 µM. For the same molecule, the TGI [13] was 35.5 µM, the TGI [14] was 38.3 µM and the TGI [15] was 75.7 µM. The TGI [16] was greater than 100 µM, the TGI [17] was 35.8 µM and the TGI [18] was 27 µM. The TGI [19] was 42 µM, the TGI [20] was 45.9 µM and the TGI [21] was 53.6 µM. It also gave a TGI [22] of 40.5 µM, a TGI [23] of 32.3 µM and a TGI [24] of 32 µM. The TGI [25] was 46 µM, the TGI [26] was 63.7 µM and the TGI [27] was 37.5 µM. It also gave a TGI [28] of 40.5 µM, a TGI [29] of 28.6 µM and a TGI [30] greater than 100 µM. For the same molecule, the TGI [31] was 73.2 µM, the TGI [32] was 45.1 µM and the TGI [33] was 54.4 µM. The TGI [34] was 47.1 µM, the TGI [35] was 81 µM and the TGI [36] was 28 µM. For the same molecule, the TGI [37] was 87.1 µM, the TGI [38] was 76.4 µM and the TGI [39] was 29.8 µM. The TGI [40] was 66.1 µM, the TGI [41] was 35.9 µM and the TGI [42] was 41.6 µM. It also gave a TGI [43] greater than 100 µM, a TGI [44] of 51.1 µM and a TGI [45] of 36.2 µM. The TGI [46] was 37.7 µM, the TGI [47] was 76.6 µM and the TGI [48] was 54.4 µM. It also gave a TGI [49] of 38.6 µM, a TGI [50] greater than 100 µM and a TGI [51] of 79.3 µM. For the same molecule, the TGI [52] was 84.1 µM, the TGI [53] was 56.7 µM and the TGI [54] was 84.4 µM. For the same molecule, the TGI [55] was 25.1 µM, the TGI [56] was 87.2 µM and the TGI [57] was 28.7 µM.

CC(C)OP(=O)(OC(C)C)C(=NCCN=C(NNc1ccccc1[N+](=O)[O-])P(=O)(OC(C)C)OC(C)C)NNc1ccccc1[N+](=O)[O-] showed a TGI [2] greater than 100 µM, a TGI [3] greater than 100 µM and a TGI [4] greater than 100 µM. The TGI [5] was greater than 100 µM, the TGI [58] was 40 µM and the TGI [6] was greater than 100 µM. The TGI [10] was greater than 100 µM, the TGI [11] was greater than 100 µM and the TGI [12] was greater than 100 µM. For the same molecule, the TGI [13] was greater than 100 µM, the TGI [14] was greater than 100 µM and the TGI [59] was 60.2 µM. For the same molecule, the TGI [16] was 82.7 µM, the TGI [17] was 71.5 µM and the TGI [18] was greater than 100 µM. For the same molecule, the TGI [19] was greater than 100 µM, the TGI [20] was greater than 100 µM and the TGI [60] was greater than 100 µM. It also gave a TGI [21] of 70.9 µM, a TGI [61] greater than 100 µM and a TGI [26] greater than 100 µM. It also gave a TGI [27] greater than 100 µM, a TGI [28] greater than 100 µM and a TGI [29] greater than 100 µM. For the same molecule, the TGI [30] was greater than 100 µM, the TGI [32] was 54.9 µM and the TGI [33] was greater than 100 µM. It also gave a TGI [62] of 72.8 µM, a TGI [36] greater than 100 µM and a TGI [37] greater than 100 µM. For the same molecule, the TGI [63] was greater than 100 µM, the TGI [39] was 54.5 µM and the TGI [40] was greater than 100 µM. It also gave a TGI [41] greater than 100 µM, a TGI [64] greater than 100 µM and a TGI [44] greater than 100 µM. For the same molecule, the TGI [45] was greater than 100 µM, the TGI [46] was 74.5 µM and the TGI [47] was greater than 100 µM. It also gave a TGI [48] greater than 100 µM, a TGI [50] greater than 100 µM and a TGI [51] of 67.4 µM. The TGI [53] was 40.6 µM, the TGI [54] was greater than 100 µM and the TGI [55] was 84.6 µM. For the same molecule, the TGI [65] was greater than 100 µM, the TGI [56] was greater than 100 µM and the TGI [57] was 83.4 µM.
